The results in this text go back to publication PMC12064818, “A general assay platform to study protein pharmacology using ligand-dependent structural dynamics” (Nature Communications, 2025).

This test has as its target T1, FLuc-C-HiBiT (Photinus pyralis, UniProt P08659).
T1 construct: firefly luciferase with C-terminal HiBiT tag, E. coli expressed
In words: biochemical. The note with it: enzyme activity, 10 uM ATP; read-out: IC50 or SDR50 (mM) / FLuc E.

Molecules are shown by their SMILES.

T1 sequence (P08659 whole entry, looked up): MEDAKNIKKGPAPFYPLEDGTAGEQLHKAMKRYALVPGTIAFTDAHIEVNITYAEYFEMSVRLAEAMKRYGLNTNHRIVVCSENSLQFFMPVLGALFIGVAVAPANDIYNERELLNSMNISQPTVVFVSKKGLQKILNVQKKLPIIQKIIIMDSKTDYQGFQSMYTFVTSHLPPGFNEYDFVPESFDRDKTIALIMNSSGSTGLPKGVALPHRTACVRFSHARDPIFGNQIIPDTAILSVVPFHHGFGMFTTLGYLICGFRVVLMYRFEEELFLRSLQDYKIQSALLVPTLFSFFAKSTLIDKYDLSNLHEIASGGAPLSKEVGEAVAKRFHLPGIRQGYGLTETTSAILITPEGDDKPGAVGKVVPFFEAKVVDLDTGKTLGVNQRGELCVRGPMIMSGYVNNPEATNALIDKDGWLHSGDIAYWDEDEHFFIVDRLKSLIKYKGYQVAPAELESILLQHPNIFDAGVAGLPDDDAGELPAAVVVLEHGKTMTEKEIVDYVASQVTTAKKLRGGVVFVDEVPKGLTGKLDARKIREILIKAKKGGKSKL

Turning to `COc1ccc(-c2cc3c(cn2)CN(Cc2cccnc2)CCN3)cc1OC` [NCGC00411110-01], the IC50 came out at 0.0143 mM. On to `c1ccc(Nc2cc3c(cn2)CN(Cc2cc[nH]n2)CCN3)cc1` [NCGC00411115-01], for which the IC50 came out at 0.0161 mM. Take `COCCN1CCNc2cc(Nc3cccc(OC)c3)ncc2C1` [NCGC00411124-01]: the IC50 was 0.018 mM. Turning to `COc1ccc(-c2cc3c(cn2)CN(C(C)=O)CCN3)cc1` [NCGC00411126-01], the IC50 came out at 0.0128 mM. `Cn1ccnc1CN1CCNc2cc(Nc3ccccc3)ncc2C1` [NCGC00411128-01]: the IC50 was found to be 0.0161 mM. Turning to `COc1cccc(Nc2cc3c(cn2)CN(Cc2cccnc2)CCN3)c1` [NCGC00411131-01], the IC50 amounted to 0.0101 mM. With `CC(=O)Nc1cccc(-c2cc3c(cn2)CN(Cc2ccccc2)CCN3)c1` [NCGC00411143-01], the IC50 was determined as 0.0161 mM. On to `Cc1cc(-c2cc3c(cn2)CN(Cc2c[nH]cn2)CCN3)ccn1` [NCGC00411148-01], for which the IC50 amounted to 0.018 mM.

Turning to `Cc1cc(-c2cc3c(cn2)CN(Cc2ccccn2)CCN3)ccn1` [NCGC00411150-01], the IC50 is 0.0202 mM. Next, `COc1ccc(-c2cc3c(cn2)CN(Cc2ccncc2)CCN3)cc1` [NCGC00411159-01]: 0.0161 mM. For the compound `COc1cccc(CN2CCNc3cc(Nc4ccccc4)ncc3C2)c1` [NCGC00411172-01], the IC50 turned out to be 0.018 mM. Take `Cc1cc(-c2cc3c(cn2)CN(Cc2cccs2)CCN3)ccn1` [NCGC00411196-01]: the IC50 was 0.0114 mM. Consider `Oc1ccccc1CN1CCNc2cc(Nc3ccccc3)ncc2C1` [NCGC00411199-02], for which the IC50 turned out to be 0.0124 mM. `COc1cccc(CN2CCNc3cc(Nc4cccnc4)ncc3C2)c1` [NCGC00411206-01]: the IC50 is 0.018 mM.

As to `COc1ccc(CN2CCNc3cc(-c4ccccc4)ncc3C2)cn1` [NCGC00411207-01], the IC50 turned out to be 0.0202 mM.

Regarding `COCCN1CCNc2cc(-c3cccc(N(C)C)c3)ncc2C1` [NCGC00411224-01], the IC50 came out at 0.0161 mM. `Cc1nc[nH]c1CN1CCNc2cc(Nc3ccccc3)ncc2C1` [NCGC00411231-01]: the IC50 worked out at 0.018 mM. Take `NC(=O)c1cccc(-c2cc3c(cn2)CN(Cc2ccccc2)CCN3)c1` [NCGC00411232-01]: the IC50 was 0.0202 mM.

As to `CC(=O)N1CCNc2cc(Nc3cccc(N(C)C)c3)ncc2C1` [NCGC00411238-01], the IC50 stood at 0.0161 mM. Next, `CCn1cc(-c2cc3c(cn2)CN(C)CCN3)cn1` [NCGC00411244-01]: 0.0226 mM; `c1cncc(Nc2cc3c(cn2)CN(Cc2c[nH]cn2)CCN3)c1` [NCGC00411246-03]: above 0.03 mM; `CC(=O)N1CCNc2cc(-c3cccc(N4CCOCC4)c3)ncc2C1` [NCGC00411247-01]: 0.018 mM. In the case of `CC(=O)N1CCNc2cc(-c3cccc(F)c3)ncc2C1` [NCGC00411252-01], the IC50 stood at 0.0254 mM. Next, `COc1ccc(-c2cc3c(cn2)CN(C)CCN3)cn1` [NCGC00411253-01]: 0.0226 mM; `CCCN1CCNc2cc(Nc3ccccc3)ncc2C1` [NCGC00411254-01]: 0.0254 mM. Regarding `CC(C)(C)CN1CCNc2cc(Nc3cccnc3)ncc2C1` [NCGC00411255-01], the IC50 was 0.0064 mM. Take `Fc1ccc(-c2cc3c(cn2)CN(Cc2ccncc2)CCN3)cc1Cl` [NCGC00411256-01]: the IC50 was determined as 0.018 mM. Next, `CC(C)(C)CN1CCNc2cc(Nc3ccccc3)ncc2C1` [NCGC00411260-01]: 0.00718 mM; `CN1CCNc2cc(Nc3ccc(F)cc3)ncc2C1` [NCGC00411261-01]: 0.0202 mM. As for `CN1CCNc2cc(Nc3ccc(F)c(Cl)c3)ncc2C1` [NCGC00411263-01], the IC50 is 0.0128 mM. In the case of `Cn1ccc2c(C(=O)NCCc3c[nH]cn3)nc(-c3ccc(N4CCOCC4)cc3)cc21` [NCGC00411589-01], the IC50 turned out to be 0.00453 mM.

Consider `CN1CCN(c2ccc(-c3cc4c(ccn4C)c(C(=O)NCCN4CCNC4=O)n3)cc2)CC1` [NCGC00411611-01], for which the IC50 worked out at 0.0124 mM. As for `Cn1ccc2c(C(=O)NCc3cccnc3)nc(-c3ccc(N4CCOCC4)cc3)cc21` [NCGC00411612-01], the IC50 stood at 0.018 mM.

`CN1CCN(c2ccc(-c3cc4c(ccn4C)c(C(=O)NCCc4ccccn4)n3)cc2)CC1` [NCGC00411712-01]: the IC50 was 0.00279 mM. On to `CN1CCN(c2ccc(-c3cc4c(ccn4C)c(C(=O)NCC4CCC(=O)N4)n3)cc2)CC1` (stereo not shown) [NCGC00411731-01], for which the IC50 stood at 0.0157 mM. On to `CN1CCN(c2ccc(-c3cc4c(ccn4C)c(C(=O)NCCC(N)=O)n3)cc2)CC1` [NCGC00411733-01], for which the IC50 is 0.0143 mM. For `OC(c1nc(Nc2ccc(Oc3ccccc3)cc2)n[nH]1)C1CC1` (stereo not shown) [NCGC00411906-01], the IC50 stood at 0.0202 mM.

In the case of `COc1ccc(-c2cnc3[nH]cc(CC(=O)N4CCN(c5ccccn5)CC4)c3c2)cc1` [NCGC00412443-01], the IC50 is 0.018 mM. Next, `Fc1cc(Nc2cnc3ccc(-c4ccccc4)nn23)cc(N2CCOCC2)c1` [NCGC00412489-01]: 0.0161 mM; `COc1ccc(-c2ccc3ncc(Nc4cc(F)cc(N5CCOCC5)c4)n3n2)cc1OC` [NCGC00412497-01]: 0.0111 mM; `COc1ccc(-c2cnc(Nc3cccc(N[S+](C)(=O)[O-])c3)c3c2CCO3)cn1` [NCGC00412697-01]: 0.018 mM. As for `CNC(=O)c1cccc(-c2cnc(NC(=O)Cc3ccccc3)c3c2CCO3)c1` [NCGC00412711-01], the IC50 worked out at 0.00321 mM. In the case of `Fc1cccc(-c2cnc(Nc3ccc(N4CCOCC4)cc3)c3c2CCO3)c1` [NCGC00412721-01], the IC50 worked out at 0.0161 mM. Next, `CNC(=O)c1cccc(-c2cnc(NC(=O)c3cn(C)cn3)c3c2CCO3)c1` [NCGC00412729-01]: 0.0202 mM. Take `COc1cccc(Nc2ncc(-c3cccnc3)c3c2OCC3)c1` [NCGC00412731-01]: the IC50 came out at 0.018 mM.

With `Clc1ccc(Nc2ncc(-c3cccnc3)c3c2OCC3)cc1` [NCGC00412736-01], the IC50 is 0.018 mM. On to `CNC(=O)c1cccc(-c2cnc(Nc3cccnc3OC)c3c2CCO3)c1` [NCGC00412753-01], for which the IC50 was determined as 0.00508 mM. On to `Fc1ccc(Nc2ncc(-c3cccnc3)c3c2OCC3)cc1` [NCGC00412761-01], for which the IC50 stood at 0.0114 mM.

Regarding `CNC(=O)c1cccc(-c2cnc(Nc3ccccc3)c3c2CCO3)c1` [NCGC00412768-01], the IC50 was found to be 0.018 mM. Next, `c1ccc(-c2cnc(Nc3ccc4c(c3)OCCO4)c3c2CCO3)cc1` [NCGC00412769-01]: 0.0161 mM; `O=C(Nc1ncc(-c2ccccc2)c2c1OCC2)c1ccccc1` [NCGC00412770-01]: 0.018 mM. As for `COc1ccc(-c2cnc(Nc3ccccc3)c3c2CCO3)cn1` [NCGC00412779-01], the IC50 came out at 0.018 mM. `COc1cccc(Nc2ncc(-c3ccc(OC)nc3)c3c2OCC3)c1` [NCGC00412784-01]: the IC50 was found to be 0.0202 mM. Next, `CNC(=O)c1cccc(-c2cnc(Nc3ccc(Cl)cn3)c3c2CCO3)c1` [NCGC00412786-01]: 0.0101 mM; `CNC(=O)c1cccc(-c2cnc(NC(=O)c3ccncc3)c3c2CCO3)c1` [NCGC00412795-01]: 0.0202 mM. For `c1ccc(Nc2ncc(-c3cccnc3)c3c2OCC3)cc1` [NCGC00412806-01], the IC50 stood at 0.0226 mM. Take `COCCNc1ncc(-c2cccc(NC(C)=O)c2)c2c1OCC2` [NCGC00412815-01]: the IC50 turned out to be 0.0161 mM.

For the compound `Cn1cc(-c2cnc(Nc3ccc(N4CCOCC4)cc3)c3c2CCO3)cn1` [NCGC00412818-01], the IC50 was 0.0143 mM.

Turning to `Cc1ccc(CN2CCc3nc(C(=O)Nc4ccccc4)oc3CC2)cc1` [NCGC00413255-01], the IC50 stood at 0.0161 mM.

Take `O=C(Nc1ccccc1)c1nc2c(o1)CCN(Cc1cccnc1)CC2` [NCGC00413263-01]: the IC50 worked out at 0.0057 mM. Next, `Cc1csc(NC(=O)c2nc3c(o2)CCN(Cc2ccccc2F)CC3)n1` [NCGC00413264-01]: 0.0128 mM; `O=C(Nc1cccnc1)c1nc2c(o1)CCN(Cc1nccs1)CC2` [NCGC00413267-01]: 0.0202 mM. `Cc1csc(NC(=O)c2nc3c(o2)CCN(Cc2cccc(F)c2)CC3)n1` [NCGC00413280-01]: the IC50 came out at 0.0143 mM. Consider `O=C(Nc1ccccc1)c1nc2c(o1)CCN(Cc1ccccc1)CC2` [NCGC00413286-01], for which the IC50 is 0.00453 mM.

On to `O=C(Nc1ccccc1)c1nc2c(o1)CCN(Cc1ccc(F)cc1)CC2` [NCGC00413289-01], for which the IC50 came to 0.018 mM. `COc1ccccc1CN1CCc2nc(C(=O)Nc3ccccc3)oc2CC1` [NCGC00413298-01]: the IC50 worked out at 0.0161 mM.

As for `Cn1cc(CN2CCc3nc(C(=O)Nc4ccccc4)oc3CC2)cn1` [NCGC00413305-01], the IC50 came out at 0.018 mM. With `COc1cccc(CN2CCc3nc(C(=O)Nc4nc(C)cs4)oc3CC2)c1` [NCGC00413306-01], the IC50 amounted to 0.018 mM. As to `CCCN1CCc2nc(C(=O)Nc3ccccc3)oc2CC1` [NCGC00413331-01], the IC50 was found to be 0.018 mM. Next, `O=C(Nc1ccccc1)c1nc2c(o1)CCN(CC1CC1)CC2` [NCGC00413351-01]: 0.0161 mM.

As for `Cn1ccnc1CN1CCc2nc(C(=O)Nc3ccccc3)oc2CC1` [NCGC00413360-01], the IC50 was 0.0202 mM. Regarding `Cc1noc(C)c1CN1CCc2nc(C(=O)Nc3ccccc3)oc2CC1` [NCGC00413386-01], the IC50 is above 0.03 mM. On to `O=C(Nc1ccccc1)c1nc2c(o1)CCN(Cc1cccc(Cl)c1)CC2` [NCGC00413390-01], for which the IC50 is 0.0101 mM. Next, `O=C(Nc1ccccc1)c1nc2c(o1)CCN(Cc1ccccn1)CC2` [NCGC00413398-01]: 0.018 mM; `O=C(Nc1ccccc1)c1nc2c(o1)CCN(Cc1ccc(O)cc1)CC2` [NCGC00413411-01]: 0.00508 mM.

`O=C(Nc1cccnc1)c1nc2c(o1)CCN(Cc1ccc(O)cc1)CC2` [NCGC00413415-01]: the IC50 came to 0.018 mM. For `O=C(Nc1cccnc1)c1nc2c(o1)CCN(Cc1cccc(O)c1)CC2` [NCGC00413425-01], the IC50 amounted to 0.0202 mM.

For the compound `COc1ccc(-c2ncc3c(n2)OCCN(C)C3=O)cc1F` [NCGC00413447-01], the IC50 is 0.018 mM. Next, `O=C1c2cnc(-c3cccc(CO)c3)nc2OCCN1c1cccc(C(F)(F)F)c1` [NCGC00413455-01]: 0.0202 mM.
